# Assay results reported in patent US20220354929A1, “PEPTIDES AND USES THEREOF” (LATERAL IP PTY LTD, priority 2019, published 2022).
# “And” between values parts separate entries of the source, which are not always exact repeats. Identical values can stand only once. “Also recorded” adds a separate entry of the source.
# Tests used:
# [1] = test system: dorsal horn neurones; experiment: whole-cell patch clamp recording in spinal cord slices from Chung models of neuropathic pain: membrane properties of dorsal horn neurones; type: cell-based, rat; settings: peptide 5 μM
# Excerpt: (§1) An in vitro spinal cord slice with intact dorsal root afferents combined with single-cell whole-cell patch clamp electrophysiological recording techniques was used to assess the electrophysiological properties of the peptides having the amino acid sequence of SEQ ID NO:2, 3, 4 and 5.
# The spinal nerve ligation model (Chung model) was first reported by Kim and Chung (1992; Pain, 50(3):355-63) and involves a single tight ligation of the L5 spinal nerve. […] This model has been used as a “gold standard” model for assessing the efficacy of novel compounds targeting neuropathic pain.
# Adult male Sprague-Dawley rats, 8-9 weeks old, weighing 220-250 g at the time of surgery, were purchased from Charles River UK Ltd. The animals were housed in groups of 4 in an air-conditioned room on a 12-hour light/dark cycle. Food and water were available ad libitum. They were allowed to acclimatise to the experimental environment for three days by leaving them on a raised metal mesh for at least 40 min. The baseline paw withdrawal threshold (PWT) was examined using a series of graduated von Frey hairs for 3 consecutive days before surgery and re-assessed on the 6th to 8th day after surgery and on the 12th to 14th day after surgery before drug dosing. Each rat was anaesthetized with 5% isoflurane mixed with oxygen (2L per min) followed by an intramuscular (i.m.) injection of ketamine 90 mg/kg plus xylazine 10 mg/kg. The back was shaved and sterilized with povidone-iodine. The animal was placed in a prone position and a para-medial incision was made on the skin covering the L4-6 level. The L5 spinal nerve was carefully isolated and tightly ligated with 6/0 silk suture. The wound was then closed in layers after a complete hemostasis. A single dose of antibiotics (Amoxipen, 15 mg/rat, i.p.) was routinely given for prevention of infection after surgery. The animals were placed in a temperature-controlled recovery chamber until fully awake before being returned to their home cages.
# (§2) Chung model rats, aged 8 to 12 weeks, were housed in an air-conditioned room on a 12 hour light/dark cycle with food and water available ad libitum. The rats were terminally anaesthetized using isofluorane and decapitated. The vertebral column, rib cage and surrounding tissues were rapidly removed and pinned under ice-cold (<4° C.), high sucrose-containing artificial cerebrospinal fluid (aCSF) comprising: 127 mM sucrose, 1.9 mM KCl, 1.2 mM KH2PO4, 0.24 mM CaCl2, 3.9 mM MgCl2, 26 mM NaHCO3, 10 mM D-glucose and 0.5 mM ascorbic acid. A laminectomy was performed and the spinal cord and associated roots gently dissected and teased out of the spinal column and surrounding tissues. Dura and pia mater and ventral roots were subsequently removed with fine forceps and the spinal cord hemisected. Care was taken to ensure dorsal root inputs to the spinal cord were maintained. The hemisected spinal cord-dorsal root preparations were secured to a tissue slicer and spinal cord slices (400 to 450 μm thick) with dorsal roots attached were cut in chilled (<4° C.) high sucrose aCSF using a Leica VT1000s microtome.
# (§3) Slices were transferred to a small beaker containing ice cold aCSF with 127 mM NaCl, 1.9 mM KCl, 1.2 mM KH2PO4, 1.3 mM MgCl2, 2.4 mM CaCl2, 26 mM NaHCO3 and 10 mM D-glucose, and rapidly warmed to 35° C. ±1° C. in a temperature-controlled water bath over a 20 minute period, then subsequently removed and maintained at room temperature (22° C. ±2° C.) prior to electrophysiological recording. Electrophysiological recording was performed in aCSF comprising 127 mM NaCl, 1.9 mM KCl, 1.2 mM KH2PO4, 1.3 mM MgCl2, 2.4 mM CaCl2, 26 mM NaHCO3 and 10 mM D-glucose.
# Whole-cell recordings were performed at 34-35° C. from Lamina I or II neurones in the dorsal horn of the spinal cord slices using Axopatch 1D and/or Multiclamp 700B amplifies and using the “blind” version of the patch-clamp technique. […]
# [2] = test system: dorsal root afferent-mediated synaptic inputs to dorsal horn neurones; experiment: whole-cell recording in spinal cord slices from Chung models: dorsal root afferent-mediated synaptic inputs (evoked EPSPs/IPSPs); type: cell-based, rat; settings: peptide 5 μM; dorsal root stimulation 0.1 Hz
# Experimental: as §1, §2, §3
# Whole-cell recordings were performed at 34-35° C. from Lamina I or II neurones in the dorsal horn of the spinal cord slices using Axopatch 1D and/or Multiclamp 700B amplifies and using the “blind” version of the patch-clamp technique.
# Patch pipettes were pulled from thin-walled borosilicate glass with resistances of between 3 and 8 MS2 when filled with intracellular solution (140 mM potassium gluconate, 10 mM KCl, 1 mM EGTA-Na, 10 mM HEPES, 4 mM Na2ATP, 0.3 mM Na-GTP). The peptides of SEQ ID NOs:2, 3, 4 or 5 (LAT7771, LAT7772, LAT7773 or LAT7774) were diluted in the tissue bath at a concentration of 5 μM.
# A concentric bipolar stimulating electrode was placed appropriately either on the dorsal root or dorsal root entry zone to evoke postsynaptic potentials/currents in recorded cells (see FIG. 1). […] EPSPs/EPSCs were confirmed as monosynaptic on the basis of being characterised by a constant latency and rise-time with few failures.
# Recordings were monitored on an oscilloscope and stored on digital audio tapes for later off-line analysis. In addition, data were low-pass filtered at 2-5 kHz, (1 kHz for voltage-clamp data), digitized at 2-10 kHz and stored on a PC running pCLAMP 10 data acquisition software (Axon Instruments). Analysis of electrophysiological data was carried out using Clampfit 10 software.
# [3] = solubility in distilled water
sequence,measurement,setting,value
CRIVYDSNCG [LAT7774],effect on inward rectification (in words),[1],changes in inward rectification
same,effect on membrane potential / postsynaptic membrane properties (in words),[1],little effect on a further 2 dorsal horn neurones; also recorded: hyperpolarisation; also recorded: depolarisation
same,"Input Resistance, mean in presence of peptide",[1]; all cells,294.0±62.2 MΩ and 294.0 MΩ
same,"Membrane Potential, mean in presence of peptide","[1]; all cells, ipsilateral to injury",−59.8±3.6 mV and −59.8 mV
same,"Normalised Input Resistance, mean in presence of peptide",[1]; control = 100,121.2
same,"Normalised Input Resistance, ΔIR",[1]; control = 100,−21.2
same,reversal potential of peptide-induced response (intersection of VI relations),[1]; individual neurones,around −100 mV and ~−65 mV and around −80 mV and ~−85 mV and around −95 mV and around −55 mV and around −85 mV
same,"Normalised Membrane Potential, mean in presence of peptide",[1]; rest = 100,100.9
same,"Normalised Membrane Potential, ΔVm",[1]; rest = 100,−0.9
same,effect on dorsal root-evoked EPSPs / excitatory synaptic transmission (in words),[2],no effect on dorsal root evoked (0.1 Hz) EPSPs in 4 neurones; also recorded: minor reduction in two; also recorded: increased EPSPs in one; also recorded: both facilitating and inhibiting these inputs; also recorded: small decrease in EPSPs; also recorded: lack of effect; also recorded: increase in EPSPs
same,solubility in distilled water,[3],soluble
